Data: patent publication US20080194585A1, “Fungicidal Pyrazine Derivatives” (priority 2005, published 2008)
Marks after values point to notes of the source that are not given here.

Assays:
Plasmopara viticola = test: Test D: grape downy mildew, spray after inoculation of grape seedlings; assay type: in vivo
Excerpt: Upon removal, disease ratings were made. […] A dash (-) indicates no test results.

Phytophthora infestans = test: whole plant or invertebrate; assay type: in vivo
Septoria tritici = test: Test J: wheat leaf blotch, preventive spray on wheat seedlings; assay type: in vivo
Excerpt: A dash (-) indicates no test results.

[1] = test system: Puccinia recondita f. sp. tritici; test: Test K: wheat leaf rust, preventive spray on wheat seedlings
Botrytis cinerea = test: Test E: tomato botrytis, preventive spray on tomato seedlings
Septoria nodorum = test: Test H: wheat glum blotch, preventive spray on wheat seedlings
Procedure: (the causal agent of wheat glum blotch) and incubated in a saturated atmosphere at 20° C. for 48 h, and then moved to a growth chamber at 22° C. for 5 days, after which disease ratings were made.

[2] = test system: Erysiphe graminis f. sp. tritici; test: Test L: wheat powdery mildew, preventive spray on wheat seedlings
Sclerotinia sclerotiorum = test: Test C: cucumber white mold, preventive spray on cucumber seedlings
Pythium aphanidermatum = test: Test A: bluegrass pythium blight, preventive spray on bluegrass seedlings
Rhizoctonia oryzae = test: Test G: turf brown patch, preventive spray on creeping bent grass seedlings
Procedure: (the causal agent of turf brown patch) and incubated in a saturated atmosphere at 27° C. for 24 h, and then moved to a growth chamber at 27° C. for 5 days, after which disease ratings were made.

[3] = test system: Colletotrichum orbiculare; test: Test B: cucumber Colletotrichum anthracnose, preventive spray on cucumber seedlings

Compound | Test D disease control rating (Plasmopara viticola; 40 ppm (*)) | Test F disease control rating (Phytophthora infestans; 40 ppm (*)) | Test J disease control rating (Septoria tritici; 40 ppm (*)) | Test K disease control rating ([1]; 40 ppm (*)) | Test E disease control rating (Botrytis cinerea; 40 ppm (*)) | Test H disease control rating (Septoria nodorum; 40 ppm (*)) | Test L disease control rating ([2]; 40 ppm (*)) | Test C disease control rating (Sclerotinia sclerotiorum; 40 ppm (*)) | Test A disease control rating (Pythium aphanidermatum; 40 ppm (*)) | Test G disease control rating (Rhizoctonia oryzae; 40 ppm (*)) | Test B disease control rating ([3]; 40 ppm (*)) | also measured
Cc1ccnc(-c2nc(Cl)c(-c3c(F)cccc3F)n(CC(C)C)c2=O)c1 [compound 208] |  |  |  |  |  |  |  |  |  |  |  | Test D disease control rating (Plasmopara viticola; 200 ppm): 12%; Test F disease control rating (Phytophthora infestans; 200 ppm): 0%; Test J disease control rating (Septoria tritici; 200 ppm): 100%; Test K disease control rating ([1]; 200 ppm): 88%; Test E disease control rating (Botrytis cinerea; 200 ppm): 92%; Test H disease control rating (Septoria nodorum; 200 ppm): 69%; Test L disease control rating ([2]; 200 ppm): 0%; Test C disease control rating (Sclerotinia sclerotiorum; 200 ppm): 0%; Test A disease control rating (Pythium aphanidermatum; 200 ppm): 0%; Test G disease control rating (Rhizoctonia oryzae; 200 ppm): 0%; Test B disease control rating ([3]; 200 ppm): 46%
Cc1cccnc1-c1nc(Cl)c(-c2c(F)cccc2F)n(CC(C)C)c1=O [compound 210] |  |  |  |  |  |  |  |  |  |  |  | Test D disease control rating (Plasmopara viticola; 200 ppm): 16%; Test F disease control rating (Phytophthora infestans; 200 ppm): 0%; Test J disease control rating (Septoria tritici; 200 ppm): 1%; Test K disease control rating ([1]; 200 ppm): 0%; Test E disease control rating (Botrytis cinerea; 200 ppm): 0%; Test H disease control rating (Septoria nodorum; 200 ppm): 0%; Test L disease control rating ([2]; 200 ppm): 0%; Test C disease control rating (Sclerotinia sclerotiorum; 200 ppm): 0%; Test A disease control rating (Pythium aphanidermatum; 200 ppm): 0%; Test G disease control rating (Rhizoctonia oryzae; 200 ppm): 0%; Test B disease control rating ([3]; 200 ppm): 0%
COC=C(C)n1c(-c2c(F)cccc2F)c(Cl)nc(-n2cccn2)c1=O [compound 211] | 4* % | 0* % | 25* % | 27* % | 0* % | 0* % | 0* % | 0* % | 0* % | 0* % | 0* % | 
COC=C(C)n1c(-c2c(F)cccc2F)c(Cl)nc(-n2cncn2)c1=O [compound 212] | 8* % | 0* % | 0* % | 0* % | 0* % | 0* % | 0* % | 0* % | 0* % | 0* % | 0* % | 
CC(CO)n1c(-c2c(F)cccc2F)c(Cl)nc(-n2cccn2)c1=O (stereo not shown) [compound 213] | 32* % | 0* % | 0* % | 92* % | 41* % | 0* % | 0* % | 0* % | 0* % | 0* % | 0* % | 
CC(CCl)n1c(-c2c(F)cccc2F)c(Cl)nc(-n2cncn2)c1=O (stereo not shown) [compound 214] | 12* % | 0* % | 9* % | 69* % | 0* % | 0* % | 0* % | 0* % | 0* % | 0* % | 0* % | 
CC(C)Cn1c(-c2c(F)cccc2F)c(Cl)nc(-n2ccnn2)c1=O [compound 215] | 29* % | 0* % | 0* % | 55* % | 99* % | 0* % | 0* % | 0* % | 0* % | 0* % | 0* % | 
CCC(C)Cn1c(-c2ccc(F)cc2Cl)c(Cl)nc(N2CCC=N2)c1=O (stereo not shown) [compound 216] | 0* % | 0* % | 97* % | 94* % | 100* % | 89* % | 94* % | 0* % | 0* % | 0* % | 53* % | 
CCC(C)Cn1c(-c2ccc(F)cc2Cl)c(Cl)nc(N2CCC(=O)N2)c1=O (stereo not shown) [compound 217] | 0* % | 0* % | 96* % | 86* % | 100* % | 86* % | 62* % | 90* % | 0* % | 0* % | 0* % | 
CC[C@H](C)Cn1c(-c2c(F)cc(F)cc2F)c(Cl)nc(N2CCC=N2)c1=O [compound 218] | 29* % | 0* % | 100* % | 100* % | 100* % | 100* % | 100* % | 99* % | 0* % | 43* % | 99* % | 
CC[C@H](C)Cn1c(-c2c(F)cc(F)cc2F)c(Cl)nc(-n2ccc(C)n2)c1=O [compound 219] | 36* % | 0* % | 100* % | 100* % | 100* % | 100* % | 100* % | 70* % | 0* % | 99* % | 100* % | 
N#Cc1nc(Cl)c(-c2c(F)cccc2F)n(Cc2ccc(Cl)cc2)c1=O [compound 220] | 0* % | 0* % | 25* % | 0* % | 0* % | 0* % | 0* % | 0* % | 0* % | 0* % | 0* % | 
O=c1c(-n2cccn2)nc(Cl)c(-c2c(F)cccc2F)n1Cc1ccc(Cl)cc1 [compound 221] | 0* % | 0* % | 100* % | 89* % | 99* % | 98* % | 0* % | 0* % | 0* % | 16* % | 0* % | 
O=c1c(-n2cncn2)nc(Cl)c(-c2c(F)cccc2F)n1Cc1ccc(Cl)cc1 [compound 222] | 0* % | 0* % | 86* % | 79* % | 92* % | 60* % | 0* % | 0* % | 0* % | 0* % | 0* % | 
